One test concerns the target T1, RARα (Homo sapiens, UniProt P10276).
T1 sequence (P10276 1-462): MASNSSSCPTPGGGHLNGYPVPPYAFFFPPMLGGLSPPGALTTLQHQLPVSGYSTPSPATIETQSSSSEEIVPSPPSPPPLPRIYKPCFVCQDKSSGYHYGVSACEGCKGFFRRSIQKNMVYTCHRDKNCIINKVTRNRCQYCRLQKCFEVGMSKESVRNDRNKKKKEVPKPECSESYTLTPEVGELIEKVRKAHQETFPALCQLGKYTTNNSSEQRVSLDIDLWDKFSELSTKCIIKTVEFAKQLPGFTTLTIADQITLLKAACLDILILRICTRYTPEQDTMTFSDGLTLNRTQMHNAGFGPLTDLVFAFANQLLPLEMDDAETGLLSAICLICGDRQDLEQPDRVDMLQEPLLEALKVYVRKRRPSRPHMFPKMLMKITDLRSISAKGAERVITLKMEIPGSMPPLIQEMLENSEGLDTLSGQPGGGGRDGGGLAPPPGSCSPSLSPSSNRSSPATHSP
Nature of the test: Ligand Binding Assay, RARα. The text has this:
(§1) Other assays described below, measure the ability of the compounds of the present invention to bind to, and/or activate various retinoid receptor subtypes. When in these assays a compound binds to a given receptor subtype and activates the transcription of a reporter gene through that subtype, then the compound is considered an agonist of that receptor subtype. […] In the below descried assays the ability of the compounds to bind to RARα, RARβ, RARγ, RXRα, RXRβ and RXRγ receptors, and the ability or inability of the compounds to activate transcription of a reporter gene through these receptor subtypes can be tested.
(§2) A holoreceptor transactivation assay and a ligand binding assay which measure the antagonist/agonist like activity of the compounds of the invention, or their ability to bind to the several retinoid receptor subtypes, respectively, are described in published PCT Application No. WO WO93/11755 (particularly on pages 30-33 and 37-41) published on Jun. 24, 1993, the specification of which is also incorporated herein by reference. A description of the holoreceptor transactivation assay is also provided below.
(§3) CV1 cells (5,000 cells/well) were transfected with an RAR reporter plasmid MTV-TREp-LUC (50 ng) along with one of the RAR expression vectors (10 ng) in an automated 96-well format by the calcium phosphate procedure of Heyman et al. Cell 68, 397-406, (1992). For RXRα and RXRγ transactivation assays, an RXR-responsive reporter plasmid CRBPII-tk-LUC (50 ng) along with the appropriate RXR expression vectors (10 ng) was used substantially as described by Heyman et al. above, and Allegretto et al. J. Biol. Chem. 268, 26625-26633. For RXRβ transactivation assays, an RXR-responsive reporter plasmid CPRE-tk-LUC ([…]) along with RXRβ expression vector ([…]) was used as described in above. These reporters contain DRI elements from human CRBPII and certain DRI elements from promoter, respectively. (see Mangelsdorf et al. The Retinoids: Biology, Chemistry and Medicine, pp 319-349, Raven Press Ltd., New York and Heyman et al., cited above) (1, 8). A β-galactosidase (50 ng) expression vector was used as an internal control in the transfections to normalize for variations in transfection efficiency. The cells were transfected in triplicate for 6 hours, followed by incubation with retinoids for 36 hours, and the extracts were assayed for luciferase and β-galactosidase activities. The detailed experimental procedure for holoreceptor transactivations has been described in Heyman et al. above, and Allegretto et al. cited above. The results obtained in this assay are expressed in EC50 numbers, as they are also in the chimeric receptor transactivation assay. The Heyman et al. Cell 68, 397-406, Allegretto et al. J. Biol. Chem. 268, 26625-26633, and Mangelsdorf et al. The Retinoids: Biology, Chemistry and Medicine, pp 319-349, Raven Press Ltd., New York, are expressly incorporated herein by reference. The results of ligand binding assay are expressed in Kd numbers. (See Cheng et al. Biochemical Pharmacology Vol. 22 pp 3099-3108, expressly incorporated herein by reference.)

A further test concerns the target T2, RARβ (Homo sapiens, UniProt P10826).
T2 sequence (P10826 1-448 isoform P10826-2): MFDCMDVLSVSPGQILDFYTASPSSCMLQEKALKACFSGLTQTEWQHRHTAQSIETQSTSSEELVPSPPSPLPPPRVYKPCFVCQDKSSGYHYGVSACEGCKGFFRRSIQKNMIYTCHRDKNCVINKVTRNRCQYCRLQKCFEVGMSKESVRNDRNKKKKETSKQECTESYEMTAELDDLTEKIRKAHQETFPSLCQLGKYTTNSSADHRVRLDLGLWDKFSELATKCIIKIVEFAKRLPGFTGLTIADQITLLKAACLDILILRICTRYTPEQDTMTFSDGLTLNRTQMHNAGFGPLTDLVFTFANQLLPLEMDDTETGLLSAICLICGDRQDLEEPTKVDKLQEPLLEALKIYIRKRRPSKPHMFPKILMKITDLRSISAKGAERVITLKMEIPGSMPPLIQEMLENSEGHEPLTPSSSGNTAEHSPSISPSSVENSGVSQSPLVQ
In words: Ligand Binding Assay, RARβ.
From the text: as §1, §2, §3

The next test deals with T3, RARγ (Homo sapiens, UniProt P13631).
T3 sequence (P13631 1-454): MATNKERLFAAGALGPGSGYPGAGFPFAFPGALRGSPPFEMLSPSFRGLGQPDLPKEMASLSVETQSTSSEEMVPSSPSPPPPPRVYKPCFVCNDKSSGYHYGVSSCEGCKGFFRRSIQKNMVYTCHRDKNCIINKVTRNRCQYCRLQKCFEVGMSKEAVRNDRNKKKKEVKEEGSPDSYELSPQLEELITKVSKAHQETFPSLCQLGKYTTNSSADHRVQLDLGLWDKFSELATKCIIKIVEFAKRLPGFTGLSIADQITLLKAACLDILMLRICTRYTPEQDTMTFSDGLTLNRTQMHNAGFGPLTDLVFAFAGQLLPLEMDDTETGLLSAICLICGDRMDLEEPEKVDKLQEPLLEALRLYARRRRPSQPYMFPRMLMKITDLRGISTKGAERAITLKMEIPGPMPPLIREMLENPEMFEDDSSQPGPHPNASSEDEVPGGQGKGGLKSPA
Nature of the test: Ligand Binding Assay, RARγ.
From the text: as §1, §2, §3

For test [1], the system named is RARγ-VP-16 chimeric receptor. In words: Retinoid inverse agonist assay: inhibition of basal luciferase activity in CV-1 cells cotransfected with RARγ-VP-16, ER-RXRα and ERE-tk-Luc. Type of test: cell-based. The settings on record: RARγ-VP-16, ER-RXRα chimeric receptor, ERE-tk-Luc reporter, read-out: IC50 (inhibition of basal luciferase activity, inverse agonism). From the text:
The activity of retinoid inverse agonists can be tested by the procedure of Klein et al. J. Biol. Chem. 271, 22692-22696 (1996) which is expressly incorporated herein by reference.
In this assay, retinoid inverse agonists are able to repress the basal activity of a RARγ-VP-16 chimeric receptor where the constituitively active domain of the herpes simplex virus (HSV) VP-16 is fused to the N-terminus of RARγ. CV-1 cells are cotransfected with RARγ-VP-16, an ER-RXRα chimeric receptor and an ERE-tk-Luc chimeric reporter gene to produce a basal level of luciferase activity, as shown by Nagpal et al. EMBO J. 12, 2349-2360 […] expressly incorporated herein by reference. Retinoid inverse agonists are able to inhibit the basal luciferase activity in these cells in a dose dependent manner and IC50 s measured.

One may read the Kd as the equilibrium constant for the complex coming apart. A high value points to a looser complex. As a reminder, the IC50 is the point on the concentration scale where inhibition reaches its midpoint. Take `Cc1ccc(N2CCC(C)(C)c3ccc(C#Cc4ccc(C(=O)O)cc4)cc32)cc1` [Compound 5, 4-(2-(4,4-Dimethyl-1,2,3,4-tetrahydro-N-(4-methylphenyl)quinolin-7-yl)ethynyl)benzoic Acid]: the equilibrium dissociation constant (Kd) at RARα came out at 13 nM; on RARβ, 3 nM; at RARγ it was 9 nM. For the same compound, the IC50 in test [1] was found to be 1 nM.
In the case of `CC1(C)CCN(c2ccccc2)c2cc(C#Cc3ccc(C(=O)O)cc3)ccc21` [Compound 10, 4-(2-(4,4-Dimethyl-1,2,3,4-tetrahydro-N-phenylquinolin-7-yl)ethynyl)benzoicAcid], the Kd on RARα turned out to be 147 nM; on RARβ, 18 nM; at RARγ it was 52 nM.
On the same counts, the results for `Cc1ccc(N2CCC(C)(C)c3ccc(C#Cc4ccc(C(=O)O)c(F)c4)cc32)cc1` [Compound 12, 4-(2-(4,4-Dimethyl-1,2,3,4-tetrahydro-N-(4-methylphenyl)quinolin-7-yl)ethynyl)-2-fluorobenzoic Acid] are 101 nM, 84 nM and 530 nM.
On the same counts, the results for `Cc1ccc(N2CCC(C)(C)c3ccc(/C=C/c4ccc(C(=O)O)cc4)cc32)cc1` [Compound 14, (E)-4-(2-(4,4-dimethyl-1,2,3,4-tetrahydro-N-(4-methylphenyl)quinolin-7-yl)ethenyl)benzoic acid] are 11 nM, 5 nM and 15 nM.
On the same counts, the results for `Cc1ccc(N2C(=O)CC(C)(C)c3ccc(C#Cc4ccc(C(=O)O)cc4)cc32)cc1` [Compound 22, 4-(2-(4,4-Dimethyl-3,4-dihydro-N-(4-methylphenyl)-2(1H)-quinolinon-7-yl)ethynyl)benzoic Acid] are 59 nM, 17 nM and 32 nM.
For `Cc1ccc(N2CCC(C)(C)c3ccc(C(=O)Nc4ccc(C(=O)O)cc4)cc32)cc1` [Compound 25, (4,4-dimethyl-1,2,3,4-tetrahydro-N-(4-methylphenyl)quinolin-7-carboxyl)-4-carboxyanilide], the values for the dissociation constant Kd on RARα, on RARβ and at RARγ were 27 nM, greater than 1000 nM and greater than 1000 nM, respectively.

For the origin of these results see patent US5739338A, “N-aryl substituted tetrahydroquinolines having retinoid agonist, retinoid antagonist or retinoid inverse agonist type biological activity” (Allergan, priority 1996, dated 1998).
